The values below come from patent US20230348394A1, “COMPOSITIONS AND METHODS FOR TREATING MUSCULAR DYSTROPHIES” (The Regents of the University of California, priority 2020, published 2023).

For this test, the system named is SSPN-HiBiT protein (sarcospan). The test is described as follows: C2C12 SSPN-HiBiT protein reporter assay (12-well and 384-well format). In kind it is cell-based, murine. Here is the method:
C2C12 SSPN-HiBiT myoblasts were seeded at 25,000 cells per well in 2 ml of growth media in 12 well-plates and incubated for 3 days. Upon reaching confluency, the growth media was replaced with 2 ml of differentiation media. At day 2 of differentiation, the media on the cells was replaced with 2 ml of differentiation media containing compounds at a final concentration of 5.5 μM in 0.06% DMSO. For vehicle control-treated cells, 0.06% DMSO was added to the cells. After 48 hrs the cells were washed with PBS and frozen for 2-24 hrs. The plates containing cells were thawed on ice and 100 μl of ice-cold modified RIPA buffer containing 1% Triton X-100, 0.05% DOC, 0.05% SDS, and Halt Protease Inhibitor was added to each well. Cells were scratched, transferred into 1.5 ml tubes, and centrifuged for 20 min at 16,000×g at 4° C. The cell lysates were transferred into new tubes. DC assay was performed on cell lysates to determine protein concentration. White walled, white bottom 384-well microplates (Greiner) were prefilled with 15 μl of PBS and 15 μl of cell lysates were added to each well in triplicate. Then 30 μl Nano-Glo HiBiT Lytic Detection working solution was added to each well and incubated for 30 min at RT with shaking. The luminescence was measured on the EnVision plate reader and the signal was normalized to protein concentration and signal from vehicle-treated controls.
C2C12 SSPN-HiBiT myoblasts were seeded at 500 cells per well in 50 μl of growth media in 384-well white, clear bottom microplates (Greiner) and incubated for 3 days. Upon reaching confluency, the growth media was replaced with 50 μl of differentiation media consisting of phenol-red free DMEM with 2% horse serum (Sigma-Aldrich) using an EL406 combination washer dispenser (Biotek). At day 2 of differentiation, the media on the cells was aspirated, left with a residual volume of 10 μl, and replaced with 30 μl of fresh differentiation media. 0.5 μl of small molecule in DMSO or DMSO alone (for vehicle and positive control wells) were added to each well using a Biomek Fx (Beckman). To ensure proper mixing of the DMSO, 50 μl of additional differentiation media was added to all wells except the positive control treated wells. The final concentration of compound in each treated well was 0.5-10 μM in 0.55% DMSO and 0.55% DMSO only for vehicle. After 48 hrs of incubation, the plate was washed with phenol red-free DMEM, aspirated, and left with a residual volume of 5 μl using EL406 combination washer dispenser. After the wash, 25 μl of differentiation media containing 12 μM DRAQ5 nuclear stain was added to reach a final concentration 10 μM in each well and incubated for 15 min at 37° C. with 5% CO2. The cells were imaged using ImageXpress Micro Confocal High Content Imaging System (Molecular Devices). The nuclei count of imaged cells were determined using a custom module analysis in MetaXpress Analysis software (Molecular Devices). After imaging and analysis, the plate was aspirated, left with a residual volume of 5 μl and placed at −80° C. for 2-24 hrs. The plate was thawed at RT and 25 μl of PBS was added, followed by 30 μl of Nano-Glo HiBiT Lytic Detection working solution prepared according manufacturer recommendations. Luminescence was measured using the EnVision plate reader and the signal of each well was normalized to nuclei count and signal from vehicle-treated controls.
In order to effectively test new analogues, we created method for detecting SSPN protein in cells, e.g., SSPN-HiBiT. SSPN-HiBiT based on a murine C2C12 cell line expressing endogenous SSPN protein with an N-term fusion protein called the HiBiT, an 11 amino acid subunit of a luciferase enzyme (FIG. 10a). The SSPN-HiBiT protein is quantified through addition of substrate and a larger subunit of the luciferase enzyme to catalyze the formation of luminescent signal. […]

As to `CCN(CC)c1ccc2cc(C(=O)Nc3ccc(C(=O)N4CCCCCC4)cc3)c(=O)oc2c1` [OT-9], the SSPN-HiBiT reporter response result (0.5-10 μM, 12-well and 384-well plate formats) is “dose-sensitive increases in SSPN”. The “SSPN-HiBiT, fold change over vehicle” value (Table 1, *p<0.05) is 2.29* fold change over vehicle.
